# ChEMBL document CHEMBL1201862, “PubChem BioAssay data set” (2004)
#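 Five concentrations, 48 hours, 96-well plates. At the GI50, growth is halved.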 Calls of active or inactive are those of the source. Cut-off read from the data, not from the text of the source: active = GI50 up to about 1.1 µM and inactive = higher.
# Columns and labels:
# Experiment in all cases: NCI-60 cell line screen, 48 h
# PC-3 = test system: PC-3
# OVCAR-8 = test system: OVCAR-8
# SF-268 = test system: SF-268
# MOLT-4 = test system: MOLT-4
# NCI-H522 = test system: NCI-H522
# OVCAR-4 = test system: OVCAR-4
# HCT-15 = test system: HCT-15
# NCI/ADR-RES = test system: NCI/ADR-RES
# NCI-H460 = test system: NCI-H460
# ACHN = test system: ACHN
# M14 = test system: M14
# T47D = test system: T47D
# Hs-578T = test system: Hs-578T
# SNB-75 = test system: SNB-75
# CAKI-1 = test system: CAKI-1
# SF-295 = test system: SF-295
# NCI-H23 = test system: NCI-H23
# SNB-19 = test system: SNB-19
# HL-60 = test system: HL-60
# HOP-92 = test system: HOP-92
SMILES,GI50 (PC-3),GI50 (OVCAR-8),GI50 (SF-268),GI50 (MOLT-4),GI50 (NCI-H522),GI50 (OVCAR-4),GI50 (HCT-15),GI50 (NCI/ADR-RES),GI50 (NCI-H460),GI50 (ACHN),GI50 (M14),GI50 (T47D),GI50 (Hs-578T),GI50 (SNB-75),GI50 (CAKI-1),GI50 (SF-295),GI50 (NCI-H23),GI50 (SNB-19),GI50 (HL-60),GI50 (HOP-92)
COc1cc(O)c2c(=O)c3cccc(C)c3[nH]c2c1,> 10 µM (inactive),> 10 µM (inactive),> 10 µM (inactive),3.99 µM (inactive),> 10 µM (inactive),6.4 µM (inactive),> 10 µM,> 10 µM (inactive),> 10 µM (inactive),7.41 µM (inactive),> 10 µM (inactive),> 10 µM (inactive),> 10 µM (inactive),6.62 µM (inactive),> 10 µM (inactive),> 10 µM (inactive),> 10 µM (inactive),> 10 µM (inactive),> 10 µM (inactive),
O=C(NCCCCNCCCNC(=O)c1ccccc1)c1ccccc1,> 100 µM (inactive),> 100 µM (inactive),> 100 µM (inactive),> 100 µM (inactive),> 100 µM (inactive),> 100 µM (inactive),> 100 µM,> 100 µM (inactive),> 100 µM (inactive),> 100 µM (inactive),> 100 µM (inactive),> 100 µM (inactive),> 100 µM (inactive),> 100 µM (inactive),,> 100 µM (inactive),> 100 µM (inactive),> 100 µM (inactive),> 100 µM (inactive),> 100 µM (inactive)
O=C(CC(C(=O)O)N1CCOCC1)c1ccccc1 (centres undefined),16.5 µM (inactive),30.8 µM (inactive),19.5 µM (inactive),15.2 µM (inactive),> 100 µM (inactive),23 µM (inactive),19.5 µM,> 100 µM (inactive),19.5 µM (inactive),16 µM (inactive),14.6 µM (inactive),> 100 µM (inactive),34.1 µM (inactive),31 µM (inactive),,41.2 µM (inactive),20.7 µM (inactive),21 µM (inactive),20.6 µM (inactive),20.4 µM (inactive)
O=S1(=O)C(c2ccccc2)=C(O)c2ccccc21,> 100 µM (inactive),> 100 µM (inactive),> 100 µM (inactive),> 100 µM (inactive),> 100 µM (inactive),> 100 µM (inactive),> 100 µM,> 100 µM (inactive),> 100 µM (inactive),> 100 µM (inactive),> 100 µM (inactive),> 100 µM (inactive),> 100 µM (inactive),> 100 µM (inactive),,> 100 µM (inactive),> 100 µM (inactive),> 100 µM (inactive),> 100 µM (inactive),> 100 µM (inactive)
Nc1nnc2n1C(=O)C(C1(C3=Nc4nnc(N)n4C3=O)Cc3ccccc3C1=O)=N2,> 100 µM (inactive),> 100 µM (inactive),> 100 µM (inactive),> 100 µM (inactive),,,> 100 µM,> 100 µM (inactive),> 100 µM (inactive),> 100 µM (inactive),> 100 µM (inactive),64.9 µM (inactive),> 100 µM (inactive),> 100 µM (inactive),> 100 µM (inactive),> 100 µM (inactive),> 100 µM (inactive),> 100 µM (inactive),> 100 µM (inactive),> 100 µM (inactive)
COc1ccc(/C=C/C=C2C(=O)NC(=S)NC2=O)cc1,12.6 µM (inactive),4.03 µM (inactive),4.68 µM (inactive),2.64 µM (inactive),,31.2 µM (inactive),3.64 µM,3.3 µM (inactive),12.5 µM (inactive),5.08 µM (inactive),10.1 µM (inactive),34.9 µM (inactive),6.44 µM (inactive),17.7 µM (inactive),9.95 µM (inactive),16.2 µM (inactive),9.71 µM (inactive),7.59 µM (inactive),0.805 µM (active),12.8 µM (inactive)
COc1ccc(Cn2nc(OCc3ccccn3)c3cc([N+](=O)[O-])ccc32)cc1,> 100 µM (inactive),63.1 µM (inactive),> 100 µM (inactive),> 100 µM (inactive),> 100 µM (inactive),,> 100 µM,> 100 µM (inactive),> 100 µM (inactive),> 100 µM (inactive),> 100 µM (inactive),> 100 µM (inactive),> 100 µM (inactive),,> 100 µM (inactive),50.9 µM (inactive),> 100 µM (inactive),85.9 µM (inactive),> 100 µM (inactive),
CCOC(=O)/C(C(=O)c1ccc[nH]1)=C1/CCCN1C,> 100 µM (inactive),> 100 µM (inactive),> 100 µM (inactive),49.5 µM (inactive),,> 100 µM (inactive),> 100 µM,> 100 µM (inactive),> 100 µM (inactive),> 100 µM (inactive),> 100 µM (inactive),> 100 µM (inactive),> 100 µM (inactive),> 100 µM (inactive),> 100 µM (inactive),> 100 µM (inactive),> 100 µM (inactive),> 100 µM (inactive),> 100 µM (inactive),
O=C1Cc2c([nH]c3c(Cl)cccc23)-c2ccccc2N1,> 100 µM (inactive),> 100 µM (inactive),> 100 µM (inactive),> 100 µM (inactive),> 100 µM (inactive),> 100 µM (inactive),> 100 µM,,> 100 µM (inactive),> 100 µM (inactive),> 100 µM (inactive),> 100 µM (inactive),87.3 µM (inactive),> 100 µM (inactive),,> 100 µM (inactive),> 100 µM (inactive),> 100 µM (inactive),> 100 µM (inactive),95.7 µM (inactive)
Cn1c2c(c3ccccc31)CCN1C(=O)CN(C(=O)C3CCCCC3)CC21 (centres undefined),> 100 µM (inactive),> 100 µM (inactive),> 100 µM (inactive),> 100 µM (inactive),> 100 µM (inactive),> 100 µM (inactive),> 100 µM,> 100 µM (inactive),> 100 µM (inactive),> 100 µM (inactive),> 100 µM (inactive),> 100 µM (inactive),> 100 µM (inactive),> 100 µM (inactive),,> 100 µM (inactive),> 100 µM (inactive),> 100 µM (inactive),> 100 µM (inactive),> 100 µM (inactive)
N#CC(c1ccccc1)(c1ccccc1)[C@@H](c1ccccc1)[C@H](Cc1ccccc1)NS(=O)(=O)c1ccccc1,46.7 µM (inactive),> 100 µM (inactive),> 100 µM (inactive),15.7 µM (inactive),> 100 µM (inactive),> 100 µM (inactive),> 100 µM,> 100 µM (inactive),66.7 µM (inactive),> 100 µM (inactive),> 100 µM (inactive),> 100 µM (inactive),> 100 µM (inactive),> 100 µM (inactive),> 100 µM (inactive),> 100 µM (inactive),> 100 µM (inactive),> 100 µM (inactive),4.17 µM (inactive),
